Data published in patent US10435399B2, “HDAC6 inhibitory heterocyclic compound” (TAKEDA PHARMACEUTICAL COMPANY LIMITED, priority 2017, dated 2019).

Target: T1, HDAC6 enzyme (Homo sapiens, UniProt Q9UBN7)
T1 construct: transducing full length HDAC6 gene into Sf-9 insect cells; GST; purchased SignalChem; host or cells: Sf-9 insect cells
T1 sequence (Q9UBN7 1-1215): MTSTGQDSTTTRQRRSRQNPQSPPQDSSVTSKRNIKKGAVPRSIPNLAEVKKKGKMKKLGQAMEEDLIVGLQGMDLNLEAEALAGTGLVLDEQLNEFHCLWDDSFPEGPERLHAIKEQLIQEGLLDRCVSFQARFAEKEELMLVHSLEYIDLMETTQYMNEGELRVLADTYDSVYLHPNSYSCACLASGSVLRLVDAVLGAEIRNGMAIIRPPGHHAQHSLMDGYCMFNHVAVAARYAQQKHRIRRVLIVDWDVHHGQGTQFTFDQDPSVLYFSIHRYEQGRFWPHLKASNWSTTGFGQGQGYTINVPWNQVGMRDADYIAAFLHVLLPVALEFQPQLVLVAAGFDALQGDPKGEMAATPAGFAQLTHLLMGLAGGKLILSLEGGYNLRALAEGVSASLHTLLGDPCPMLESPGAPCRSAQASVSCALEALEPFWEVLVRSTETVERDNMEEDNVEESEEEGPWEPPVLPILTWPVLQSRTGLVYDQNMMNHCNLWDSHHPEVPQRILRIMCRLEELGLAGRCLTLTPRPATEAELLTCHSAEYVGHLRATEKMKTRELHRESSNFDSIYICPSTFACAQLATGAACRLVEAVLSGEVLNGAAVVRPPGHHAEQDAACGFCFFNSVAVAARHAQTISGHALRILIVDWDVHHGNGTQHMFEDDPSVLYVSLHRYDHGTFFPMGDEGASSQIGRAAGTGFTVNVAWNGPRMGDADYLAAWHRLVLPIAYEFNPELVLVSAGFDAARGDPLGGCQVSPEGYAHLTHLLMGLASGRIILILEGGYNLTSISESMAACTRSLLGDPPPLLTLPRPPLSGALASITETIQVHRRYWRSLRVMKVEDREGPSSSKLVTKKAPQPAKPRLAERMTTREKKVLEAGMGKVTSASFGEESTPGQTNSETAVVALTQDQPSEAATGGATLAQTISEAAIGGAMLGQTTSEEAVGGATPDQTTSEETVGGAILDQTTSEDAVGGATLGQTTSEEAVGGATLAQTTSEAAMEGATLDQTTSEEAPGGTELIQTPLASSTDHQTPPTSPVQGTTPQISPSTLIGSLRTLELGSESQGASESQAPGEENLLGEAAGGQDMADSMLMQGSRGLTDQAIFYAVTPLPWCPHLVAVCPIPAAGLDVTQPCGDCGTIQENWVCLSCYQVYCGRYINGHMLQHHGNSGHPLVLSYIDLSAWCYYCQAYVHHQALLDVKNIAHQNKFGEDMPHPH
Experiment: HDAC6 enzyme inhibitory activity (HDAC-Glo I/II Assay kit)
Assay type: biochemical
Conditions: 10 μM; wells without enzyme = 100% inhibition; read-out: HDAC6 inhibitory rate (%) (10 μM)
Procedure, shortened: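 Sf-9-derived GST-purified full-length HDAC6 + cpd, 60 min RT, 24 mM Tris pH 7.5/0.6 mM glutathione/0.01% Tween-20; add HDAC-Glo substrate-developer, 20 min RT; luminescence. No-enzyme = 100% inhibition.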

Row | inhibition at 10 µM | SMILES
1 | 99% | CC(C)(C)OC(=O)N[C@H]1COCC[C@H]1N1Cc2c(F)cc(-c3nnc(C(F)F)o3)cc2C1=O [Example 363, tert-butyl ((3R,4R)-4-(6-(5-(difluoromethyl)-1,3,4-oxadiazol-2-yl)-4-fluoro-1-oxo-1,3-dihydro-2H-isoindol-2-yl)tetrahydro-2H-pyran-3-yl)carbamate]
2 | 87% | N[C@H]1COCC[C@H]1N1Cc2c(F)cc(-c3nnc(C(F)F)o3)cc2C1=O [Example 364, 2-((3R,4R)-3-amino-tetrahydro-2H-pyran-4-yl)-6-(5-(difluoromethyl)-1,3,4-oxadiazol-2-yl)-4-fluoroisoindolin-1-one]
3 | 101% | O=C1c2cc(-c3nnc(C(F)F)o3)cc(F)c2CN1[C@@H]1CCOC[C@@H]1NC(=O)C(F)(F)C(F)(F)F [Example 365, N-((3R,4R)-4-(6-(5-(difluoromethyl)-1,3,4-oxadiazol-2-yl)-4-fluoro-1-oxo-1,3-dihydro-2H-isoindol-2-yl)tetrahydro-2H-pyran-3-yl)-2,2,3,3,3-pentafluoropropanamide]
4 | 97% | CC(F)(F)C(=O)N[C@H]1COCC[C@H]1N1Cc2c(F)cc(-c3nnc(C(F)F)o3)cc2C1=O [Example 366, N-((3R,4R)-4-(6-(5-(difluoromethyl)-1,3,4-oxadiazol-2-yl)-4-fluoro-1-oxo-1,3-dihydro-2H-isoindol-2-yl)tetrahydro-2H-pyran-3-yl)-2,2-difluoropropanamide]
5 | 101% | O=C1c2cc(-c3nnc(C(F)F)o3)cnc2CN1[C@@H]1CCCC[C@H]1NCC(F)(F)F [Example 367, 3-(5-(difluoromethyl)-1,3,4-oxadiazol-2-yl)-6-((1R,2R)-2-((2,2,2-trifluoroethyl)amino)-cyclohexyl)-6,7-dihydro-5H-pyrrolo[3,4-b]pyridin-5-one]
6 | 99% | Cn1cc(-c2cccc(C#N)c2)c(N2Cc3ccc(-c4nnc(C(F)F)o4)cc3C2=O)n1 [Example 368, 3-(3-(6-(5-(difluoromethyl)-1,3,4-oxadiazol-2-yl)-1-oxo-1,3-dihydro-2H-isoindol-2-yl)-1-methyl-1H-pyrazol-4-yl)benzonitrile]
7 | 99% | Cn1cc(-c2cccc(Cl)c2)c(N2Cc3ccc(-c4nnc(C(F)F)o4)cc3C2=O)n1 [Example 369, 2-(4-(3-chlorophenyl)-1-methyl-1H-pyrazol-3-yl)-6-(5-(difluoro-methyl)-1,3,4-oxadiazol-2-yl)isoindolin-1-one]
8 | 101% | O=C1c2cc(-c3nnc(C(F)F)o3)cnc2CN1Cc1cccc(C(F)F)c1 [Example 370, 6-(3-(difluoromethyl)benzyl)-3-(5-(difluoro-methyl)-1,3,4-oxadiazol-2-yl)-6,7-dihydro-5H-pyrrolo[3,4-b]pyridin-5-one]
9 | 99% | O=C1c2cc(-c3nnc(C(F)F)o3)cc(F)c2CN1C1(CNS(=O)(=O)CC(F)(F)F)CCCCC1 [Example 371, N-((1-(6-(5-(difluoro-methyl)-1,3,4-oxadiazol-2-yl)-4-fluoro-1-oxo-1,3-dihydro-2H-isoindol-2-yl)cyclohexyl)methyl)-2,2,2-trifluoroethane-sulfonamide]
10 | 92% | O=C1c2cc(-c3nnc(C(F)F)o3)cc(F)c2CN1c1ccccc1Br [Example 372, 2-(2-bromophenyl)-6-(5-(difluoromethyl)-1,3,4-oxadiazol-2-yl)-4-fluoroisoindolin-1-one]
11 | 97% | O=C1c2cc(-c3nnc(C(F)F)o3)ccc2CN1c1cccc(F)c1Br [Example 373, 2-(2-bromo-3-fluorophenyl)-6-(5-(difluoromethyl)-1,3,4-oxadiazol-2-yl)isoindolin-1-one]
12 | 99% | O=C1c2cc(-c3nnc(C(F)F)o3)cc(F)c2CN1[C@@H]1CCOC[C@@H]1NCC(F)(F)F [Example 374, 6-(5-(difluoromethyl)-1,3,4-oxadiazol-2-yl)-4-fluoro-2-((3R,4R)-3-((2,2,2-trifluoroethyl)amino)tetrahydro-2H-pyran-4-yl)isoindolin-1-one]
13 | 101% | O=C1c2cc(-c3nnc(C(F)F)o3)cc(F)c2CN1[C@@H]1CCOC[C@@H]1NCC(F)(F)C(F)(F)F [Example 375, 6-(5-(difluoromethyl)-1,3,4-oxadiazol-2-yl)-4-fluoro-2-((3R,4R)-3-((2,2,3,3,3-pentafluoropropyl)amino)tetrahydro-2H-pyran-4-yl)isoindolin-1-one]
14 | 101% | N#Cc1cccc(-c2ccccc2N2Cc3c(F)cc(-c4nnc(C(F)F)o4)cc3C2=O)c1 [Example 376, 2′-(6-(5-(difluoro-methyl)-1,3,4-oxadiazol-2-yl)-4-fluoro-1-oxo-1,3-dihydro-2H-isoindol-2-yl)biphenyl-3-carbonitrile]
15 | 101% | N#Cc1cccc(-c2c(F)cccc2N2Cc3ccc(-c4nnc(C(F)F)o4)cc3C2=O)c1 [Example 377, 2′-(6-(5-(difluoro-methyl)-1,3,4-oxadiazol-2-yl)-1-oxo-1,3-dihydro-2H-isoindol-2-yl)-6′-fluorobiphenyl-3-carbonitrile]
16 | 99% | N#Cc1cccc(-c2cc(F)ccc2N2Cc3c(F)cc(-c4nnc(C(F)F)o4)cc3C2=O)c1 [Example 378, 2′-(6-(5-(difluoro-methyl)-1,3,4-oxadiazol-2-yl)-4-fluoro-1-oxo-1,3-dihydro-2H-isoindol-2-yl)-5′-fluorobiphenyl-3-carbonitrile]
17 | 97% | O=C1c2cc(-c3nnc(C(F)F)o3)cc(F)c2CN1C[C@@H]1CCCN1C(=O)C1CC1 [Example 379, 2-(((2S)-1-(cyclopropyl-carbonyl)pyrrolidin-2-yl)methyl)-6-(5-(difluoromethyl)-1,3,4-oxadiazol-2-yl)-4-fluoro-isoindolin-1-one]
18 | 99% | O=C1c2cc(-c3nnc(C(F)F)o3)cc(F)c2CN1C[C@@H]1CCCN1S(=O)(=O)CC(F)(F)F [Example 380, 6-(5-(difluoro-methyl)-1,3,4-oxadiazol-2-yl)-4-fluoro-2-(((2S)-1-((2,2,2-trifluoroethyl)sulfonyl)pyrrolidin-2-yl)methyl) isoindolin-1-one]
19 | 100% | O=C1c2cc(-c3nnc(C(F)F)o3)cc(F)c2CN1c1ccc(F)cc1-c1cnn(C(F)F)c1 [Example 381, 6-(5-(difluoro-methyl)-1,3,4-oxadiazol-2-yl)-2-(2-(1-(difluoro-methyl)-1H-pyrazol-4-yl)-4-fluorophenyl)-4-fluoroisoindolin-1-one]
20 | 98% | Cn1cc(-c2cc(F)ccc2N2Cc3c(F)cc(-c4nnc(C(F)F)o4)cc3C2=O)cn1 [Example 382, 6-(5-(difluoro-methyl)-1,3,4-oxadiazol-2-yl)-4-fluoro-2-(4-fluoro-2-(1-methyl-1H-pyrazol-4-yl)phenyl) isoindolin-1-one]
21 | 95% | O=C1c2cc(-c3nnc(C(F)F)o3)cc(F)c2CN1c1ccc(F)cc1-c1cccc(F)c1 [Example 383, 2-(3′,5-difluoro-biphenyl-2-yl)-6-(5-(difluoro-methyl)-1,3,4-oxadiazol-2-yl)-4-fluoroiso-indolin-1-one]
22 | 99% | Cn1cc(-c2cccc(F)c2)c(N2Cc3ccc(-c4nnc(C(F)F)o4)cc3C2=O)n1 [Example 384, 6-(5-(difluoro-methyl)-1,3,4-oxadiazol-2-yl)-2-(4-(3-fluoro-phenyl)-1-methyl-1H-pyrazol-3-yl) isoindolin-1-one]
